target: T1, glucocorticoid receptor (Homo sapiens, UniProt P04150); assay: Glucocorticoid Receptor Binding Assay ([3H]-dexamethasone displacement, A549 cell extract); details: A549 human lung epithelial cell extract, 1.86 nM [3H]-dexamethasone; read-out: GR Ki
T1 construct: host or cells: A549 human lung epithelial cells (sonicated cell extract)
T1 sequence (P04150 1-777): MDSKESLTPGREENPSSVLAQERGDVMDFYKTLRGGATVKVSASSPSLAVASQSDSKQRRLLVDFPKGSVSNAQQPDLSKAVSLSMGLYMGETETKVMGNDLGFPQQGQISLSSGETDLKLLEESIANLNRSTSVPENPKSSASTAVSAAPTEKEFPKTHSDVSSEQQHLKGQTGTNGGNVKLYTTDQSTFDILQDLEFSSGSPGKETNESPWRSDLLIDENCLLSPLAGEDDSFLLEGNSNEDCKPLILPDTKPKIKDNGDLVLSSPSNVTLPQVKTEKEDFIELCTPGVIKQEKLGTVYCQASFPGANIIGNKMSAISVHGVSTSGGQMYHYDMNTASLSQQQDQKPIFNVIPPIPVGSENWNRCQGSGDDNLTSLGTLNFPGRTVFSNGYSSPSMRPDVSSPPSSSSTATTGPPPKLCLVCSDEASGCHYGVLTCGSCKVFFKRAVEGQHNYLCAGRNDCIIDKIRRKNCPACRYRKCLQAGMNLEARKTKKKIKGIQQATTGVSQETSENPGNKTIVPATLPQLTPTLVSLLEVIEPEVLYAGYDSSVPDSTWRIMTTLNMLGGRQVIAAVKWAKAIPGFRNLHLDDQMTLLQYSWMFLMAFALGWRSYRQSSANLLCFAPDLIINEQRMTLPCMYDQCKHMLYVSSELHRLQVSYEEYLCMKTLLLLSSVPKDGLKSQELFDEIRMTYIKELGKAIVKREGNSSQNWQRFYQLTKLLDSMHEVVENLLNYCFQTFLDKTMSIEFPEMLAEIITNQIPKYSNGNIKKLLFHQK
In short: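 A549 cell extract (50-200 ug; buffer 50 mM Tris-HCl pH 7.2 with glycerol, NaCl, MgCl2, EDTA, 10 mM molybdate) incubated with 1.86 nM [3H]-dexamethasone and test compound, 16 h at 4 °C. Unbound ligand removed with dextran-coated charcoal; bound radioactivity counted. IC50 converted to Ki via Cheng-Prusoff.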

Ki, ≤ 1000 nM:
Cc1cc(C2(c3cc(C)c(O)c(C)c3)C(=O)N(Cc3ccc(C(C)(C)C)cc3)c3ccccc32)cc(C)c1O [Example 7, 1-(4-tert-Butyl-benzyl)-3,3-bis-(4-hydroxy-3,5-dimethyl-phenyl)-1,3-dihydro-indol-2-one]
Cc1nc(CN2C(=O)C(c3cc(C)c(O)c(C)c3)(c3cc(C)c(O)c(C)c3)c3ccccc32)cs1 [Example 89, 3,3-Bis-(4-hydroxy-3,5-dimethyl-phenyl)-1-(2-methyl-thiazol-4-ylmethyl)-1,3-dihydro-indol-2-one]

Ki, ≤ 500 nM:
Cc1cc(C2(c3cc(C)c(O)c(C)c3)C(=O)N(Cc3ccc(F)cc3)c3ccccc32)cc(C)c1O [Example 2]
COc1ccc2c(c1)C(c1cc(C)c(O)c(C)c1)(c1cc(C)c(O)c(C)c1)C(=O)N2Cc1ccccc1 [Example 16, 1-Benzyl-3,3-bis-(4-hydroxy-3,5-dimethyl-phenyl)-5-methoxy-1,3-dihydro-indol-2-one]
Cc1cc(C2(c3ccc(O)cc3)C(=O)N(Cc3ccccc3)c3ccccc32)cc(C)c1O (stereo not shown) [Example 29, 1-Benzyl-3-(4-hydroxy-3,5-dimethyl-phenyl)-3-(4-hydroxy-phenyl)-1,3-dihydro-indol-2-one]
COc1ccccc1C(=O)CN1C(=O)C(c2cc(C)c(O)c(C)c2)(c2cc(C)c(O)c(C)c2)c2ccccc21 [Example 44, 3,3-Bis-(4-hydroxy-3,5-dimethyl-phenyl)-1-[2-(2-methoxy-phenyl)-2-oxo-ethyl]-1,3-dihydro-indol-2-one]
COc1cccc(C(=O)CN2C(=O)C(c3cc(C)c(O)c(C)c3)(c3cc(C)c(O)c(C)c3)c3ccccc32)c1 [Example 45, 3,3-Bis-(4-hydroxy-3,5-dimethyl-phenyl)-1-[2-(3-methoxy-phenyl)-2-oxo-ethyl]-1,3-dihydro-indol-2-one]
COc1ccc(C(=O)CN2C(=O)C(c3cc(C)c(O)c(C)c3)(c3cc(C)c(O)c(C)c3)c3ccccc32)cc1 [Example 46, 3,3-Bis-(4-hydroxy-3,5-dimethyl-phenyl)-1-[2-(4-methoxy-phenyl)-2-oxo-ethyl]-1,3-dihydro-indol-2-one]
COc1ccc(OC)c(C(=O)CN2C(=O)C(c3cc(C)c(O)c(C)c3)(c3cc(C)c(O)c(C)c3)c3ccccc32)c1 [Example 49, 1-[2-(2,5-Dimethoxy-phenyl)-2-oxo-ethyl]-3,3-bis-(4-hydroxy-3,5-dimethyl-phenyl)-1,3-dihydro-indol-2-one]
Cc1cc(C2(c3cc(C)c(O)c(C)c3)C(=O)N(Cc3ccccc3C#N)c3ccccc32)cc(C)c1O [Example 51, 2-[3,3-Bis-(4-hydroxy-3,5-dimethyl-phenyl)-2-oxo-2,3-dihydro-indol-1-ylmethyl]-benzonitrile]
Cc1cc(C2(c3cc(C)c(O)c(C)c3)C(=O)N(Cc3ccc(Cl)c(Cl)c3)c3ccccc32)cc(C)c1O [Example 52, 1-(3,4-Dichloro-benzyl)-3,3-bis-(4-hydroxy-3,5-dimethyl-phenyl)-1,3-dihydro-indol-2-one]
COC(=O)c1cccc(CN2C(=O)C(c3cc(C)c(O)c(C)c3)(c3cc(C)c(O)c(C)c3)c3ccccc32)c1 [Example 55, 3-[3,3-Bis-(4-hydroxy-3,5-dimethyl-phenyl)-2-oxo-2,3-dihydro-indol-1-ylmethyl]-benzoic acid methyl ester]
Cc1cc(C2(c3cc(C)c(O)c(C)c3)C(=O)N(Cc3ccc(C(F)(F)F)cc3)c3ccccc32)cc(C)c1O [Example 57, 3,3-Bis-(4-hydroxy-3,5-dimethyl-phenyl)-1-(4-trifluoromethyl-benzyl)-1,3-dihydro-indol-2-one]
Cc1cc(C2(c3cc(C)c(O)c(C)c3)C(=O)N(Cc3cccc(Cl)c3)c3ccccc32)cc(C)c1O [Example 60, 1-(3-Chloro-benzyl)-3,3-bis-(4-hydroxy-3,5-dimethyl-phenyl)-1,3-dihydro-indol-2-one]
Cc1cc(C2(c3cc(C)c(O)c(C)c3)C(=O)N(Cc3cccc(C(F)(F)F)c3)c3ccccc32)cc(C)c1O [Example 61, 3,3-Bis-(4-hydroxy-3,5-dimethyl-phenyl)-1-(3-trifluoromethyl-benzyl)-1,3-dihydro-indol-2-one]
Cc1cc(C2(c3cc(C)c(O)c(C)c3)C(=O)N(Cc3ccc(Br)cc3F)c3ccccc32)cc(C)c1O [Example 81, 1-(4-Bromo-2-fluoro-benzyl)-3,3-bis-(4-hydroxy-3,5-dimethyl-phenyl)-1,3-dihydro-indol-2-one]
Cc1cc(C2(c3cc(C)c(O)c(C)c3)C(=O)N(Cc3ccc(O)cc3)c3ccccc32)cc(C)c1O [Example 88, 1-(4-Hydroxy-benzyl)-3,3-bis-(4-hydroxy-3,5-dimethyl-phenyl)-1,3-dihydro-indol-2-one]
Cc1cc(C2(c3cc(C)c(O)c(C)c3)C(=O)N(Cc3ccccn3)c3ccccc32)cc(C)c1O [Example 100, 3,3-Bis-(4-hydroxy-3,5-dimethyl-phenyl)-1-pyridin-2-ylmethyl-1,3-dihydro-indol-2-one]
Cc1cc(C2(c3cc(C)c(O)c(C)c3)C(=O)N(CC3CC3)c3ccccc32)cc(C)c1O [Example 105, 1-Cyclopropylmethyl-3,3-bis-(4-hydroxy-3,5-dimethyl-phenyl)-1,3-dihydro-indol-2-one]
Cc1cc(C2(c3cc(C)c(O)c(C)c3)C(=O)N(Cc3c(C)cccc3C)c3ccccc32)cc(C)c1O [Example 107, 1-(2,6-Dimethyl-benzyl)-3,3-bis-(4-hydroxy-3,5-dimethyl-phenyl)-1,3-dihydro-indol-2-one]
Cc1cc(C2(c3cc(C)c(O)c(C)c3)C(=O)N(Cc3cc(C(F)(F)F)ccc3F)c3ccccc32)cc(C)c1O [Example 112, 1-(2-Fluoro-5-trifluoromethyl-benzyl)-3,3-bis-(4-hydroxy-3,5-dimethyl-phenyl)-1,3-dihydro-indol-2-one]
Cc1cc(C2(c3cc(C)c(O)c(C)c3)C(=O)N(C3CCCC3)c3ccccc32)cc(C)c1O [Example 114, 1-Cyclopentyl-3,3-bis-(4-hydroxy-3,5-dimethyl-phenyl)-1,3-dihydro-indol-2-one]
Cc1cc(C2(c3cc(C)c(O)c(C)c3)C(=O)N(Cc3ccc(N)cc3)c3ccccc32)cc(C)c1O [Example 117, 11-(4-Amino-benzyl)-3,3-bis-(4-hydroxy-3,5-dimethyl-phenyl)-1,3-dihydro-indol-2-one]
Cc1cc(C2(c3cc(C)c(O)c(C)c3)C(=O)N(Cc3cccc(N)c3)c3ccccc32)cc(C)c1O [Example 118, 1-(3-Amino-benzyl)-3,3-bis-(4-hydroxy-3,5-dimethyl-phenyl)-1,3-dihydro-indol-2-one]
Cc1cc(C2(c3cc(C)c(O)c(C)c3)C(=O)N(CCc3scnc3C)c3ccccc32)cc(C)c1O [Example 121, 3,3-Bis-(4-hydroxy-3,5-dimethyl-phenyl)-1-[2-(4-methyl-thiazol-5-yl)-ethyl]-1,3-dihydro-indol-2-one]
COc1ccc(N2C(=O)C(c3cc(C)c(O)c(C)c3)(c3cc(C)c(O)c(C)c3)c3ccccc32)cc1 [Example 128, 3,3-Bis-(4-hydroxy-3,5-dimethyl-phenyl)-1-(4-methoxy-phenyl)-1,3-dihydro-indol-2-one]
COc1cccc(N2C(=O)C(c3cc(C)c(O)c(C)c3)(c3cc(C)c(O)c(C)c3)c3ccccc32)c1 [Example 134, 3,3-Bis-(4-hydroxy-3,5-dimethyl-phenyl)-1-(3-methoxy-phenyl)-1,3-dihydro-indol-2-one]
Cc1cc(C2(c3cc(C)c(O)c(C)c3)C(=O)N(c3cccnc3)c3ccccc32)cc(C)c1O [Example 135, 3,3-Bis-(4-hydroxy-3,5-dimethyl-phenyl)-1-pyridin-3-yl-1,3-dihydro-indol-2-one]
Cc1cc(C2(c3cc(C)c(O)c(C)c3)C(=O)N(c3cccc(Br)c3)c3ccccc32)cc(C)c1O [Example 139, 1-(3-Bromo-phenyl)-3,3-bis-(4-hydroxy-3,5-dimethyl-phenyl)-1,3-dihydro-indol-2-one]

Ki, ≤ 10000 nM:
Cc1cc(C2(c3cc(C)c(O)c(C)c3)C(=O)N(Cc3cccc4ccccc34)c3ccccc32)cc(C)c1O [Example 10, 3,3-Bis-(4-hydroxy-3,5-dimethyl-phenyl)-1-naphthalen-1-ylmethyl-1,3-dihydro-indol-2-one]
Cc1ccc2c(c1)C(c1cc(C)c(O)c(C)c1)(c1cc(C)c(O)c(C)c1)C(=O)N2Cc1csc(C)n1 [Example 93, 3,3-Bis-(4-hydroxy-3,5-dimethyl-phenyl)-5-methyl-1-(2-methyl-thiazol-4-ylmethyl)-1,3-dihydro-indol-2-one]

Reference: patent US7250442B2, “Dihydroindol-2-one derivatives as steroid hormone nuclear receptor modulators” (Eli Lilly and Company, priority 2003, dated 2007)
